Each structure is given as a SMILES string.

Here are results for 2 molecules from paper PMC11637191, “The pH-dependence of efflux ratios determined with bidirectional transport assays across cellular monolayers” (International Journal of Pharmaceutics: X, 2024).

One data set has as its system MDCK-II-MDR1 cells. Conditions: intrinsic membrane permeability, calculated from Papp, A⟶B with elacridar.
Data set [1] concerns MDCK-MDR1 cells. Conditions: dog, MDCK-MDR1, pH 7.4.
A short description of the next data set: in vitro. Conditions: dog.
In data set [2] the test system is P-gp (MDR1). Nature of the data set: in vitro. Conditions: dog.
For data set [3], the system named is P-gp (MDR1). The data set can be described thus: in vitro. Conditions: dog, MDCK-MDR1, Papp, B⟶A.
Data set [4] concerns MDCK-MDR1 cells. Conditions: MDCK-MDR1, pH 7.4; cited from earlier work.
The nature of data set [5]: Calculation of neutral fraction (fn). Conditions: neutral fraction at pH 8.
The conditions of data set [6]: no reference given; cited from earlier work.

Description for MDCK-II-MDR1 cells: Briefly, cells (passage 20–40) were seeded onto 12-well PET inserts (CellQART, Northeim, Germany; pore size: 0.4 μm; filter thickness: 11.5 μm, 100×10^6 pores/cm^2) at a density of 1.5×10^5 cells/insert. […] One day before the experiments, the cell medium was refreshed. For P0 determination, inserts were pre-incubated with the P-gp inhibitor elacridar (2 μM) for 30 min in HBSS pH 7.4. The transport rates in both directions of the test compounds were determined in duplicate or triplicate for 4–5 different pH values between pH 5 and pH 9. The transport buffer was HBSS buffered with 10 mM MES for pH 5 and 6, 25 mM HEPES for pH 7, 7.4 and 8, and 10 mM TAPS for pH 9. Stock solutions were prepared in the transport buffer and pre-warmed to 37 °C. Additional stock solutions with 2 μM elacridar were prepared at suitable pH values to measure P0 values in tandem. The pH of all buffer and stock solutions, as well as the pH of all samples after experiment completion, was controlled with a rapid pH automated pH meter (Hudson Robotics, Inc., Springfield, NJ, USA). Inserts were used in 12-well plates (TPP Techno Plastic Products AG, Trasadingen, Switzerland). […] Timestep length was determined individually for each compound and direction measured to ensure sink conditions. […]
to ensure that measured transport rates would not be affected by active efflux .

A word on the Papp: it is a coefficient for how fast a substance crosses the barrier. High values mean ready permeation, low ones poor permeation. As a reminder, the Papp B→A is the apparent permeability from the basolateral to the apical side of a cell layer. Take `COc1cc2c(c(OC)c1OC)-c1ccc(OC)c(=O)cc1[C@@H](NC(C)=O)CC2` [Colchicine]: the LogP0 in the data set on MDCK-II-MDR1 cells is on record as -5.9 P in cm/s. The molecule also had a Factor difference with MDCK-MDR1 cells [1] of 7. Besides, the recovery lay in the range of 100 to 120% in “in vitro” (MDCK-MDR1, pH 5); 78 to 109% in “in vitro” (MDCK-MDR1, pH 6); 98 to 110% in the data set “in vitro” (MDCK-MDR1, pH 7); 96 to 102% in the data set “in vitro” (MDCK-MDR1, pH 8); 92 to 100% in the data set “in vitro” (MDCK-MDR1, pH 9). The apparent permeability (Papp) in the data set with P-gp (MDR1) [2] (MDCK-MDR1, pH 5) is 0.52 ± 0.15 ×10⁻⁶ cm/s; in the data set with P-gp (MDR1) [2] (MDCK-MDR1, pH 6) it was 0.2 ± 0.04 ×10⁻⁶ cm/s; with P-gp (MDR1) [2] (MDCK-MDR1, pH 7), 0.16 ± 0.04 ×10⁻⁶ cm/s; in the data set on P-gp (MDR1) [2] (MDCK-MDR1, pH 8), 0.2 ± 0.05 ×10⁻⁶ cm/s; in the data set with P-gp (MDR1) [2] (MDCK-MDR1, pH 9), 0.41 ± 0.06 ×10⁻⁶ cm/s; in the data set with P-gp (MDR1) [3], 6.33 ×10⁻⁶ cm/s. In addition, the Papp B→A amounted to 2.12 ± 0.14 ×10⁻⁶ cm/s in the data set on P-gp (MDR1) [2] (MDCK-MDR1, pH 5); 4.42 ± 0.33 ×10⁻⁶ cm/s with P-gp (MDR1) [2] (MDCK-MDR1, pH 6); 5.03 ± 0.58 ×10⁻⁶ cm/s in the data set with P-gp (MDR1) [2] (MDCK-MDR1, pH 7); 6.33 ± 0.62 ×10⁻⁶ cm/s in the data set on P-gp (MDR1) [2] (MDCK-MDR1, pH 8); 5.89 ± 1.14 ×10⁻⁶ cm/s in the data set on P-gp (MDR1) [2] (MDCK-MDR1, pH 9). Also, the “Papp, B⟶A” value in the data set with MDCK-MDR1 cells [4] was 11.9 ×10⁻⁶ cm/s. The “Papp, inhibitor” value in the data set on MDCK-MDR1 cells [4] was 1.64 ×10⁻⁶ cm/s. For the same molecule, the fn in data set [5] is 100%.
With `COc1ccc2c(c1)c(CC(=O)O)c(C)n2C(=O)c1ccc(Cl)cc1` [Indomethacin], the logKhex/water in data set [6] is recorded as 0.58.
